What was measured:
[1] = test system: CD8-MerTK in Ba/F3-CDM cells; assay: In cell MER kinase assay, Ba/F3-CDM cell proliferation without IL-3 (Celltiter-Glo); assay type: cell-based, murine; details: 48 hours compound treatment, read-out: Cell growth inhibition (GI50)
How it was run: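 Ba/F3 cells, IL-3-dependent, transfected with CD8-MerTK and grown without IL-3 in DMEM/10% FBS. IL-3-supplemented Ba/F3 cells run in parallel as a cytotoxicity control.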

[2] = target: human c-MER catalytic domain (Homo sapiens (Human), UniProt Q12866); assay: LanthaScreen TR-FRET kinase assay, c-MER; details: read-out: Mer TK inhibition (IC50); Biochemical IC50, TR-FRET, 10 uM ATP
Chain of human c-MER catalytic domain (Q12866 587-858): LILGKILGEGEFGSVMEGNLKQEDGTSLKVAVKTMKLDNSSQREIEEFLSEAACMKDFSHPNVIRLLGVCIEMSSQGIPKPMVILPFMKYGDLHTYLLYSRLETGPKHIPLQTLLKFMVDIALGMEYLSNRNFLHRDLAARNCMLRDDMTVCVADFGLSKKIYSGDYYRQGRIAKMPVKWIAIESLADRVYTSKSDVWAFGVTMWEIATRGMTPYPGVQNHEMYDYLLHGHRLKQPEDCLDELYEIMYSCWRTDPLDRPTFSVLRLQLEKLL

For `CN1CCN(Cc2ccc(-c3ccc(CO[C@H]4CNC[C@@H]4NC(=O)c4cc(-c5cnn(C)c5)cnc4N)cc3)cc2)CC1` [Example 434, 2-amino-5-(1-methyl-1H-pyrazol-4-yl)-N-((3S,4S)-4-((4′-((4-methylpiperazin-1-yl)methyl)-[1,1′-biphenyl]-4-yl)methoxy)pyrrolidin-3-yl)-nicotinamide], the GI50 [1] was 500 to 1000 nM and the IC50 [2] was < 10 nM.
With `C[C@@H]1CN(Cc2ccc(-c3ccc(CO[C@H]4CCC[C@@H]4NC(=O)c4cc(-c5cnn(C)c5)cnc4N)cc3)cc2)CCN1` [Example 185, 2-amino-5-(1-methyl-1H-pyrazol-4-yl)-N-((1S,2S)-2-((4′-(((R)-3-methylpiperazin-1-yl)methyl)-[1,1′-biphenyl]-4-yl)methoxy)cyclopentyl)nicotinamide] the GI50 [1] was 100 to 500 nM and the IC50 [2] was < 10 nM.
`CN1CCN(Cc2ccc(-c3ccc(CO[C@H]4CCC[C@@H]4NC(=O)c4cc(-c5cnn(C)c5)cnc4N)cc3)cc2F)CC1` [Example 195, 2-amino-N-((1S,2S)-2-((3′-fluoro-4′-((4-methylpiperazin-1-yl)-methyl)-[1,1′-biphenyl]-4-yl)methoxy)cyclopentyl)-5-(1-methyl-1H-pyrazol-4-yl)-nicotinamide] was tested, and the GI50 [1] was < 100 nM and the IC50 [2] was < 10 nM.
For `CC(c1ccc(-c2ccc(CO[C@H]3CNC[C@@H]3NC(=O)c3cc(-c4cnn(C)c4)cnc3N)cc2)cc1)N1CCN(CCO)CC1` (stereo partly drawn) [Example 442, 2-amino-N-((3S,4S)-4-((4′-(1-(4-(2-hydroxyethyl)piperazin-1-yl)ethyl)-[1,1′-biphenyl]-4-yl)methoxy)pyrrolidin-3-yl)-5-(1-methyl-1H-pyrazol-4-yl)nicotinamide], the GI50 [1] was > 1000 nM and the IC50 [2] was < 10 nM.
`CC(c1ccc(-c2ccc(CO[C@H]3CCC[C@@H]3NC(=O)c3cc(-c4cncc(F)c4)cnc3N)cc2)cc1)N1CCN(CCO)CC1` (stereo partly drawn) [Example 236, 6-amino-5′-fluoro-N-((1S,2S)-2-((4′-(1-(4-(2-hydroxyethyl)-piperazin-1-yl)ethyl)-[1,1′-biphenyl]-4-yl)methoxy)cyclopentyl)-[3,3′-bipyridine]-5-carboxamide] was tested, and the GI50 [1] was < 100 nM and the IC50 [2] was < 10 nM.
For `CN1CCN(CCc2ccc(-c3ccc(CO[C@H]4CCC[C@@H]4NC(=O)c4cc(-c5cnn(C)c5)cnc4N)cc3)cc2)CC1` [Example 161, 2-amino-5-(1-methyl-1H-pyrazol-4-yl)-N-((1S,2S)-2-((4′-(2-(4-methylpiperazin-1-yl)ethyl)-[1,1′-biphenyl]-4-yl)methoxy)cyclopentyl)nicotinamide], the GI50 [1] was < 100 nM and the IC50 [2] was < 10 nM.
For `CCc1cc(CO[C@H]2CNC[C@@H]2NC(=O)c2cc(-c3ccc(C#N)cc3)cnc2N)ccc1C` [Example 400, 2-amino-5-(4-cyanophenyl)-N-((3S,4S)-4-((3-ethyl-4-methylbenzyl)oxy)pyrrolidin-3-yl)nicotinamide], the GI50 [1] was 500 to 1000 nM and the IC50 [2] was < 10 nM.
`CCc1ccc(-c2ccc(CO[C@H]3CCC[C@@H]3NC(=O)c3cc(-c4cnn(C)c4)cnc3N)cc2)cc1` [Example 153, 2-amino-N-((1S,2S)-2-((4′-ethyl-[1,1′-biphenyl]-4-yl)-methoxy)cyclopentyl)-5-(1-methyl-1H-pyrazol-4-yl)nicotinamide] was tested, and the GI50 [1] was 500 to 1000 nM and the IC50 [2] was < 10 nM.
With `Cn1cc(-c2cnc(N)c(C(=O)N[C@H]3CCC[C@@H]3OCc3ccc(-c4ccc(CN5CCN(CC(C)(C)O)CC5)cc4)cc3)c2)cn1` [Example 182, 2-amino-N-((1S,2S)-2-((4′-((4-(2-hydroxy-2-methylpropyl)-piperazin-1-yl)methyl)-[1,1′-biphenyl]-4-yl)methoxy)cyclopentyl)-5-(1-methyl-1H-pyrazol-4-yl)nicotinamide] the GI50 [1] was < 100 nM and the IC50 [2] was < 10 nM.
With `CC(c1c(F)cc(-c2ccc(CO[C@H]3CCC[C@@H]3NC(=O)c3cc(-c4cnn(C)c4)cnc3N)cc2)cc1F)N1CCN(CCO)CC1` (stereo partly drawn) [Example 212, 2-amino-N-((1S,2S)-2-((3′,5′-difluoro-4′-(1-(4-(2-hydroxyethyl)-piperazin-1-yl)ethyl)-[1,1′-biphenyl]-4-yl)methoxy)cyclopentyl)-5-(1-methyl-1H-pyrazol-4-yl)nicotinamide] the GI50 [1] was > 1000 nM and the IC50 [2] was < 10 nM.
With `CC(c1ccc(-c2ccc(CO[C@H]3CCC[C@@H]3NC(=O)c3cc(-c4cncc(F)c4)cnc3N)cc2)cc1)N1CCN(C)CC1` (stereo partly drawn) [Example 230, 6-amino-5′-fluoro-N-((1S,2S)-2-((4′-(1-(4-methylpiperazin-1-yl)ethyl)-[1,1′-biphenyl]-4-yl)methoxy)cyclopentyl)-[3,3′-bipyridine]-5-carboxamide] the GI50 [1] was < 100 nM and the IC50 [2] was < 10 nM.
For `C[C@@H]1CN(Cc2ccc(-c3ccc(CO[C@H]4CCC[C@@H]4NC(=O)c4cc(-c5cnn(C)c5)cnc4N)cc3)cc2)C[C@H](C)N1C` [Example 190, 2-amino-5-(1-methyl-1H-pyrazol-4-yl)-N-((1S,2S)-2-((4′-((cis-3,4,5-trimethylpiperazin-1-yl)methyl)-[1,1′-biphenyl]-4-yl)methoxy)cyclopentyl)-nicotinamide], the GI50 [1] was < 100 nM and the IC50 [2] was < 10 nM.
`CC(c1ccc(-c2ccc(CO[C@H]3CCC[C@@H]3NC(=O)c3cc(F)cnc3N)cc2)cc1)N1CCN(C)CC1` (stereo partly drawn) [Example 232, 2-amino-5-fluoro-N-((1S,2S)-2-((4′-(1-(4-methylpiperazin-1-yl)-ethyl)-[1,1′-biphenyl]-4-yl)methoxy)cyclopentyl)nicotinamide] was tested, and the GI50 [1] was 500 to 1000 nM and the IC50 [2] was < 10 nM.
With `Cn1cc(-c2cnc(N)c(C(=O)N[C@H]3CCC[C@@H]3OCc3ccc(-c4ccc(CC5CCN(CC(N)=O)CC5)cc4)cc3)c2)cn1` [Example 242, 2-amino-N-((1S,2S)-2-((4′-((1-(2-amino-2-oxoethyl)piperidin-4-yl)methyl)-[1,1′-biphenyl]-4-yl)methoxy)cyclopentyl)-5-(1-methyl-1H-pyrazol-4-yl)-nicotinamide] the GI50 [1] was < 100 nM and the IC50 [2] was < 10 nM.
In the case of `Cn1cc(-c2cnc(N)c(C(=O)N[C@H]3CCC[C@@H]3OCc3ccc(C#CCCCO)cc3)c2)cn1` [Example 250, 2-amino-N-((1S,2S)-2-((4-(5-hydroxypent-1-yn-1-yl)-benzyl)oxy)-cyclopentyl)-5-(1-methyl-1H-pyrazol-4-yl)nicotinamide], the GI50 [1] is reported as 100 to 500 nM and the IC50 [2] is reported as < 10 nM.
With `CN1CCN(Cc2ccc(-c3ccc(CO[C@H]4CCC[C@@H]4NC(=O)c4cc(-c5cnn(C)c5)cnc4N)cc3Cl)cc2)CC1` [Example 159, 2-amino-N-((1S,2S)-2-((2-chloro-4′-((4-methylpiperazin-1-yl)-methyl)-[1,1′-biphenyl]-4-yl)methoxy)cyclopentyl)-5-(1-methyl-1H-pyrazol-4-yl)-nicotinamide] the GI50 [1] was 100 to 500 nM and the IC50 [2] was < 10 nM.
`CCc1cc(CO[C@H]2CNC[C@@H]2NC(=O)c2cc(-c3ccc(C(N)=O)cc3)cnc2N)ccc1C` [Example 391, 2-amino-5-(4-carbamoylphenyl)-N-((3S,4S)-4-((3-ethyl-4-methylbenzyl)oxy)pyrrolidin-3-yl)nicotinamide] was tested, and the GI50 [1] was > 1000 nM and the IC50 [2] was < 10 nM.
With `CN1CCN(Cc2ccc(-c3ccc(OC[C@H]4CCC[C@@H]4NC(=O)c4cc(-c5cnn(C)c5)cnc4N)cc3)cc2)CC1` [Example 86, 2-amino-5-(1-methyl-1H-pyrazol-4-yl)-N-((1S,2S)-2-(((4′-((4-methylpiperazin-1-yl)methyl)-[1,1′-biphenyl]-4-yl)oxy)methyl)cyclopentyl)nicotinamide] the GI50 [1] was 100 to 500 nM and the IC50 [2] was < 10 nM.
With `Cn1cc(-c2cnc(N)c(C(=O)N[C@H]3CCC[C@@H]3OCc3ccc(-c4ccc(CN5CCN(CCO)CC5)c(C(F)(F)F)c4)cc3)c2)cn1` [Example 205, 2-amino-N-((1S,2S)-2-((4′-((4-(2-hydroxyethyl)piperazin-1-yl)methyl)-3′-(trifluoromethyl)-[1,1′-biphenyl]-4-yl)methoxy)cyclopentyl)-5-(1-methyl-1H-pyrazol-4-yl)nicotinamide] the GI50 [1] was < 100 nM and the IC50 [2] was < 10 nM.

Source: US10125118B2, “Heteroaryl compounds and their use as therapeutic drugs” (Dong-A Socio Holdings Co., Ltd., priority 2015, dated 2018)
